# Laboratory results reported in patent US20220175811A1, “STABLE FORMULATIONS OF CYCLIC DINUCLEOTIDE STING AGONIST COMPOUNDS AND METHODS OF USE THEREOF” (Merck Sharp & Dohme Corp., priority 2019, published 2022).
# Assay: Forced stress screen (AIBN, peroxide, 0.1N NaOH)
# Type: physicochemical
# Procedure: 0.05 mg/mL stock solutions of Compound A were prepared by adding […] of Compound A to a 50 mL volumetric flask and diluted to volume with either 50/50 water/methanol (stock solution A), or 50/50 water/acetonitrile (stock solution B).
# An azobisisobutyronitrile (AIBN) stress solution was prepared by dissolving 7.77 mg of AIBN in 10 mL of stock solution A in an amber volumetric flask and sonicating to dissolve. The AIBN control solution was prepared by dissolving 8.48 mg of AIBN in 10 mL of 50/50 methanol/water in an amber volumetric flask. Both solutions were placed in an oven at 40° C. for 24 hours.
# A peroxide stress solution was prepared by adding 1.0 mL of 3% hydrogen peroxide to 9.0 mL of stock solution A in a volumetric flask. An aliquot of the solution was placed into an amber vial kept at room temperature, and another aliquot was stored at 5° C. for 24 hours. The peroxide control solution was prepared by adding 1.0 mL of 3% hydrogen peroxide to 9.0 mL 50/50 methanol/water in an amber volumetric flask. This solution was kept at room temperature for 24 hours.
# A 0.1N NaOH stress solution was prepared by adding 1.0 mL of 1N sodium hydroxide to 9.0 mL of stock solution B in an amber volumetric flask. One sample was kept at room temperature, and the identical sample was placed in an oven at 60° C. for 24 hours. A 0.1N NaOH control solution was prepared by adding 1.0 mL of 1N sodium hydroxide to 9.0 mL of 50/50 acetonitrile/water in an amber volumetric flask.
# No major degradation was observed under AIBN or 0.1N NaOH base stress. […] The percent of Compound A was calculated based on the area count of active peak in the control samples compared to stress samples.
smiles,measurement,setting,value
"Nc1nc2c(ncn2[C@@H]2O[C@@H]3CO[P@@](=O)(S)O[C@H]4[C@H](F)[C@H](n5cnc6c(N)ncnc65)O[C@@H]4CO[P@@](=O)(S)O[C@@H]2[C@@H]3F)c(=O)[nH]1 (single isomer, unassigned) [Compound A]",Sensitive for Hydrolysis or Oxidation,"0.1 N NaOH base stress, in 0.1 N NaOH after 24h/RT",No sensitivity; <5% drug loss
same,Sensitive for Hydrolysis or Oxidation,AIBN stress,No sensitivity; <5% drug loss
same,Sensitive for Hydrolysis or Oxidation,Peroxide stress at 5° C.,High sensitivity; >10% drug loss
same,Sensitive for Hydrolysis or Oxidation,Peroxide stress at RT,High sensitivity; >10% drug loss
same,Sensitivity to two-electron oxidative processes,forced stress,highly sensitive
